Some test systems named below: TK-10 renal; SW-620 colon; SN12C renal; MDA-MB-231 breast; SF-539 CNS; SK-MEL-5 melanoma; EKVX NSCLC; SK-MEL-2 melanoma; NCI-H522 lung; OVCAR-8 ovarian.
Common to all, as to experiment: NCI tumour cell line growth inhibition, 48 h

Molecules are shown by their SMILES. Values joined by “and” are separate entries in the source; they are usually repeats but may differ in a detail not shown here. Identical values can stand only once.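 Five compound concentrations were applied to cells in 96-well plates for 48 hours; endpoints were derived by simple linear interpolation of the resulting dose-response curve. At the GI50, growth is halved. TGI is the concentration that stops growth completely.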 A value given as a limit tells only on which side of the number the result lay.

On to `CN(C)c1ccc2nc3ccc(=[N+](C)C)cc-3sc2c1`, for which the GI50 in the test on TK-10 renal was 3.98 µM and 1.42 µM; in the test with SW-620 colon it was 0.344 µM and 0.657 µM; with SN12C renal, 0.71 µM and 1.38 µM; with MDA-MB-231 breast, 0.512 µM and 1.36 µM; in the test with SF-539 CNS, 0.139 µM and 0.379 µM; with SK-MEL-5 melanoma, 0.146 µM and 0.39 µM. Also, the GI50 with EKVX NSCLC was 4.24 µM and 0.804 µM; in the test on SK-MEL-2 melanoma, 1.44 µM and 0.544 µM; with NCI-H522 lung, 0.232 µM and 0.449 µM; in the test on OVCAR-8 ovarian it was 0.261 µM and 0.39 µM. Besides, the TGI is 16.1 µM and 17.2 µM in the test with TK-10 renal; 13.5 µM and 19.1 µM in the test on SW-620 colon; 7.05 µM and 12.6 µM with SN12C renal; 12.9 µM and 16.9 µM in the test on MDA-MB-231 breast; 9.82 µM and 14.7 µM with SF-539 CNS; 0.412 µM and 1.98 µM in the test with SK-MEL-5 melanoma. In addition, the TGI is 28.3 µM and 29.4 µM in the test with EKVX NSCLC; 3.68 µM and 13.6 µM in the test with SK-MEL-2 melanoma; 0.906 µM and 4.5 µM in the test with NCI-H522 lung.

As for `CC(C)(O)CC(=O)NCCn1ccc2ncnc(Nc3ccc(Oc4cccc(C(F)(F)F)c4)c(Cl)c3)c21`, the GI50 was 0.363 µM in the test on TK-10 renal; 3.32 µM in the test on SW-620 colon; 2 µM in the test with SN12C renal; 4.53 µM with MDA-MB-231 breast; 4.03 µM with SF-539 CNS; 2.84 µM in the test on SK-MEL-5 melanoma. Moreover, the GI50 was 0.415 µM in the test on EKVX NSCLC, 8.66 µM in the test on SK-MEL-2 melanoma, 0.535 µM in the test on NCI-H522 lung and 3.65 µM in the test with OVCAR-8 ovarian. Further, the TGI in the test with TK-10 renal, with SW-620 colon, in the test with SN12C renal, in the test with MDA-MB-231 breast, in the test with SF-539 CNS and in the test with SK-MEL-5 melanoma was above 10 µM throughout. In addition, the TGI in the test on EKVX NSCLC, with SK-MEL-2 melanoma, in the test on NCI-H522 lung and in the test with OVCAR-8 ovarian was above 10 µM throughout.

Take `O=C1c2c(O)cccc2C(C2OC(CO)C(O)C(O)C2O)c2cc(CO)cc(O)c21` (stereo not given): the TGI in the test with TK-10 renal, in the test with SW-620 colon, in the test with SN12C renal, in the test with MDA-MB-231 breast, with SF-539 CNS and in the test with SK-MEL-5 melanoma was above 100 µM each time. In addition, the TGI with EKVX NSCLC, in the test on SK-MEL-2 melanoma, in the test with NCI-H522 lung and with OVCAR-8 ovarian was above 100 µM throughout.

Consider `COc1ccc(OC)c(-c2c(C#N)c(N)nc(N3CCOCC3)c2C#N)c1`, for which the GI50 in the test on TK-10 renal is 45 µM; in the test on SW-620 colon, above 100 µM; with SN12C renal, 73 µM; with MDA-MB-231 breast, 40.3 µM; with SF-539 CNS, above 100 µM; in the test on SK-MEL-5 melanoma, above 100 µM. Besides, the GI50 in the test on EKVX NSCLC was above 100 µM; in the test with SK-MEL-2 melanoma it was above 100 µM; in the test with NCI-H522 lung, 46.2 µM; in the test on OVCAR-8 ovarian it was 79.1 µM. Besides, the TGI with TK-10 renal, in the test on SW-620 colon, in the test with SN12C renal, with MDA-MB-231 breast, with SF-539 CNS and in the test with SK-MEL-5 melanoma was above 100 µM each time. The TGI in the test with EKVX NSCLC, with SK-MEL-2 melanoma, in the test with NCI-H522 lung and with OVCAR-8 ovarian was above 100 µM in each case.

Take `CN(C)c1ccc2c(c1)OC(N)=C(C#N)C2c1ccc2c(c1)CCO2` (stereo not given): the GI50 in the test on TK-10 renal is 15.9 µM; with SW-620 colon, below 0.0294 µM; with SN12C renal it was 0.644 µM; with MDA-MB-231 breast it was 0.419 µM; with SF-539 CNS, 0.118 µM; with SK-MEL-5 melanoma, below 0.0427 µM. For the same compound, the GI50 in the test with EKVX NSCLC was 0.47 µM; in the test with SK-MEL-2 melanoma, 0.0962 µM; in the test with NCI-H522 lung it was below 0.0239 µM; in the test with OVCAR-8 ovarian it was 0.39 µM. The TGI with TK-10 renal is above 100 µM; in the test on SW-620 colon, above 100 µM; in the test on SN12C renal, 42.5 µM; with MDA-MB-231 breast it was 28.6 µM; in the test with SF-539 CNS it was 0.519 µM; in the test on SK-MEL-5 melanoma it was 15.1 µM. For the same compound, the TGI was above 100 µM in the test with EKVX NSCLC, 24.7 µM with SK-MEL-2 melanoma and 39.9 µM with OVCAR-8 ovarian.

As for `CCCCN(CCCC)c1ccc(C(=N)c2ccc(N(CCCC)CCCC)cc2)cc1`, the GI50 is 0.453 µM with TK-10 renal; 0.306 µM in the test on SW-620 colon; 0.35 µM with SN12C renal; 0.759 µM in the test on MDA-MB-231 breast; 1.49 µM with SF-539 CNS; 0.547 µM with SK-MEL-5 melanoma. Moreover, the GI50 in the test on EKVX NSCLC was 0.277 µM; with SK-MEL-2 melanoma, 0.387 µM; in the test with NCI-H522 lung, 0.232 µM; in the test with OVCAR-8 ovarian it was 0.396 µM. Further, the TGI in the test with TK-10 renal came to 1.53 µM; in the test with SW-620 colon it was 1.29 µM; in the test with SN12C renal, 1.44 µM; with MDA-MB-231 breast it was 2.06 µM; with SF-539 CNS it was 2.95 µM; in the test on SK-MEL-5 melanoma, 1.61 µM. The TGI in the test with EKVX NSCLC was determined as 1.15 µM; in the test with SK-MEL-2 melanoma, 1.31 µM; in the test with NCI-H522 lung it was 0.727 µM; in the test with OVCAR-8 ovarian, 1.37 µM.

In the case of `CN1CC[C@@H](c2c(O)cc(O)c3c(=O)cc(-c4ccccc4Cl)oc23)[C@@H]1CO`, the GI50 was 0.293 µM in the test with TK-10 renal; 0.276 µM with SW-620 colon; 0.299 µM in the test on SN12C renal; 0.292 µM with MDA-MB-231 breast; 0.275 µM with SF-539 CNS; 0.372 µM in the test with EKVX NSCLC. For the same compound, the figures for the GI50 with SK-MEL-2 melanoma, in the test with NCI-H522 lung and with OVCAR-8 ovarian were 0.228 µM, 0.357 µM and 0.321 µM, respectively. In addition, the TGI was above 10 µM in the test on TK-10 renal; above 10 µM in the test on SW-620 colon; above 10 µM in the test with SN12C renal; above 10 µM in the test on MDA-MB-231 breast; 0.863 µM with SF-539 CNS; above 8.02 µM with EKVX NSCLC. For the same compound, the TGI in the test with SK-MEL-2 melanoma was 0.594 µM; with NCI-H522 lung, 2.76 µM; with OVCAR-8 ovarian, above 10 µM.

In the case of `COc1c(Cl)cc(NC(=S)C#N)cc1Cl`, the TGI in the test with TK-10 renal is above 100 µM; in the test on SW-620 colon it was above 100 µM; in the test with SN12C renal, 53.5 µM; in the test on MDA-MB-231 breast it was 36.1 µM; in the test on SF-539 CNS it was 59 µM; with SK-MEL-5 melanoma, 32.9 µM. Moreover, the TGI was above 74 µM in the test on EKVX NSCLC, 86.2 µM in the test with SK-MEL-2 melanoma, 52.8 µM in the test with NCI-H522 lung and above 69.3 µM in the test with OVCAR-8 ovarian.

Take `C/C=C(/COC(C)=O)C(=O)OC1C=C(C=O)C(C)(C)C=C1C` (stereo not given): the TGI in the test on TK-10 renal, in the test with SW-620 colon, in the test with SN12C renal, in the test with MDA-MB-231 breast, in the test on SF-539 CNS and with SK-MEL-5 melanoma was above 100 µM throughout. In addition, the TGI in the test with EKVX NSCLC, with SK-MEL-2 melanoma, in the test on NCI-H522 lung and in the test on OVCAR-8 ovarian was above 100 µM throughout.

As to `O=C(COc1ccc(/C=C2\Oc3ccccc3C2=O)cc1)Nc1nc2c(s1)CCCC2`, the GI50 in the test with TK-10 renal is 26.2 µM; in the test on SW-620 colon it was 4.07 µM; in the test with SN12C renal, 4.64 µM; in the test with MDA-MB-231 breast, 0.709 µM; in the test on SF-539 CNS it was 0.622 µM; in the test on SK-MEL-5 melanoma, 17.4 µM. Moreover, the GI50 is 10.7 µM in the test with EKVX NSCLC, 4.87 µM with SK-MEL-2 melanoma and 0.165 µM in the test with NCI-H522 lung. The TGI with TK-10 renal was above 87.6 µM; in the test on SW-620 colon, above 100 µM; with SN12C renal, above 92 µM; in the test with MDA-MB-231 breast, 6.38 µM; with SF-539 CNS, 1.4 µM; with SK-MEL-5 melanoma it was above 57.5 µM. Besides, the TGI was above 100 µM in the test with EKVX NSCLC, 50.2 µM in the test on SK-MEL-2 melanoma and 0.406 µM in the test with NCI-H522 lung.

Take `CCc1ccc(NC(=O)COC(=O)c2cc([N+](=O)[O-])ccc2Sc2nnnn2C)cc1`: the GI50 in the test with TK-10 renal is 46.4 µM; in the test with SW-620 colon, 10.9 µM; in the test on SN12C renal, 33.2 µM; in the test with MDA-MB-231 breast, 23.6 µM; in the test with SF-539 CNS, 16.7 µM; in the test with SK-MEL-5 melanoma, 4.64 µM. Moreover, the GI50 in the test on EKVX NSCLC was 29.5 µM; in the test with SK-MEL-2 melanoma, 23.3 µM; in the test on NCI-H522 lung, 11.5 µM. Also, the TGI is above 100 µM in the test with TK-10 renal; 31.5 µM in the test with SW-620 colon; above 100 µM with SN12C renal; above 100 µM in the test on MDA-MB-231 breast; 42.8 µM with SF-539 CNS; 18 µM in the test with SK-MEL-5 melanoma. For the same compound, the TGI with EKVX NSCLC was above 100 µM; in the test on SK-MEL-2 melanoma, above 100 µM; with NCI-H522 lung, 36.3 µM.

For the compound `CCCOC(=O)N1CCN(/[N+]([O-])=N/Oc2ccc([N+](=O)[O-])cc2[N+](=O)[O-])CC1`, the GI50 was 3.87 µM with TK-10 renal; 2.58 µM with SN12C renal; 2.29 µM with MDA-MB-231 breast; 0.273 µM in the test with SF-539 CNS; 2.35 µM in the test on SK-MEL-5 melanoma; 2.64 µM with EKVX NSCLC. Moreover, the values for the GI50 in the test on SK-MEL-2 melanoma, in the test on NCI-H522 lung and in the test with OVCAR-8 ovarian were 2.71 µM, 3.16 µM and 9.35 µM, respectively. The TGI in the test with TK-10 renal worked out at 14.9 µM; in the test on SN12C renal it was 6.94 µM; in the test with MDA-MB-231 breast it was 4.83 µM; with SF-539 CNS it was 0.648 µM; in the test on SK-MEL-5 melanoma it was 7.53 µM; in the test with EKVX NSCLC, 7.79 µM. Further, the results for the TGI with SK-MEL-2 melanoma, in the test with NCI-H522 lung and in the test on OVCAR-8 ovarian were 7.78 µM, 15.7 µM and 72.8 µM, respectively.

The record behind these values is PubChem BioAssay (NCI).
